# Source: ChEMBL document CHEMBL6087461, “Cell-Permeable Peptide Inhibitors of the p53-hDM2 Interaction via Foldamer Helix Mimicry and Bis-Thioether Stapling” (J Med Chem, 2025)
# pEC50, pIC50: −log10 of the molar value. Activity calls are given as the source filed them. The rule behind the calls is not given here. Starred links: 1 amine or outer side, 2 acyl side, 3 side chain; linkers in the order of their positions; H or OH if unused. Positions of bridges follow the written chain, without caps; N, C: chain ends. Residues, ends and D or L forms follow the SMILES beside them. *: point of attachment. X2 = CC(C)[C@@H](CNC(N)=O)NC(=O)NC[C@H](C)NC(=O)NC[C@H](CSCC(=O)NCCNC(=O)C[*:1])N[*:2]; X1 = CC(C)[C@@H](CNC(N)=O)NC(=O)NC[C@H](C)NC(=O)NC[C@H](CSCCCCCC[*:1])N[*:2]; X6 = CC(C)[C@@H](CNC(N)=O)NC(=O)NC[C@H](CSCCCCCC[*:1])NC(=O)NC[C@H](C)N[*:2]; X3 = CC(C)[C@@H](CNC(N)=O)NC(=O)NC[C@H](C)NC(=O)NC[C@H](C)N*; NH(CH2CH2O)2(CH2)6Cl = ClCCCCCCOCCOCCN*; Suc = O=C(CCC(=O)[*:2])[*:1]
# Key:
# HCT-116 [1] = experiment: Effect on increase in p21 RNA level in human HCT-116 cells at 10 uM measured after 6 hrs by RT-qPCR analysis; type: functional, cell-based
# HCT-116 [2] = experiment: Effect on increase in […] RNA level in human HCT-116 cells at 10 uM measured after 6 hrs by RT-qPCR analysis; type: functional, cell-based
# [3] = target: Tumour suppressor p53/oncoprotein Mdm2 (Homo sapiens) (UniProt P04637+Q00987); experiment: PROTAC activity at human MDM2/p53 extracted from Escherichia coli interaction by measuring inhibition of interaction at 100 nM by time-resolved fluorescence energy transfer (TRFRET) detection method relative to control; type: protein assay
# [4] = target: Tumour suppressor protein p53/Mdm4 (Homo sapiens) (UniProt P04637+O15151); experiment: PROTAC activity at human DMX/p53 extracted from Escherichia coli interaction at 100 nM by measuring inhibition of interaction by time-resolved fluorescence energy transfer (TRFRET) detection method relative to control; type: protein assay
# [5] = PROTAC activity at human DM2/p53 extracted from Escherichia coli interaction by measuring inhibition of interaction by time-resolved fluorescence energy transfer (TRFRET) detection method
# [6] = target: Tumour suppressor protein p53/Mdm4 (Homo sapiens, UniProt O15151); experiment: PROTAC activity at human DMX/p53 extracted from Escherichia coli interaction by measuring inhibition of interaction by time-resolved fluorescence energy transfer (TRFRET) detection method; type: protein assay
# SW480 = experiment: Cytotoxicity against human SW480 cells expressing […] assessed as cell viability at 0.1 to 40 uM measured after 72 hrs incubation by MTS cell viability assay; type: functional, cell-based; settings: dose 0.1-40 µM
# [7] = Permeability in human HeLa cells transfected with Halo-GFP-Mito assessed as accumulation in cytosol measured after 4 hrs incubation by chloroalkane penetration assay; type: ADME, subcellular
# HCT-116 [8] = experiment: Induction of p53 level in human HCT-116 cells expressing wild type p53 measured after 6 hrs by Western blotting analysis; type: functional, cell-based; settings: dose 0.1-40 µM
# HCT-116 [9] = experiment: Induction of P21 RNA level in human HCT-116 cells expressing wild type p53 measured after 6 hrs by RT-qPCR analysis; type: functional, cell-based; settings: dose 0.1-10 µM
# HCT-116 [10] = experiment: Induction of hDM2 RNA level in human HCT-116 cells expressing wild type p53 measured after 6 hrs by RT-qPCR analysis; type: functional, cell-based; settings: dose 0.1-10 µM
# HCT-116 [11] = experiment: Cytotoxicity against human HCT-116 cells assessed as cell viability at 0.1 to 40 uM measured after 2 hrs incubation by LDH release assay; type: functional, cell-based; settings: dose 0.1-40 µM
# HCT-116 [12] = experiment: Cytotoxicity against human HCT116 cells expressing wild type p53 and overexpressing human DM2 assessed as cell viability measured after 72 hrs incubation by MTS cell viability assay; type: functional, cell-based
# MCF7 = experiment: Cytotoxicity against human MCF7 cells expressing wild type p53 and overexpressing human DMX assessed as cell viability measured after 72 hrs incubation by MTS cell viability assay; type: functional, cell-based
# HCT-116 [13] = experiment: Cytotoxicity against human HCT-116 cells assessed as cell viability at 100 uM by MTS cell viability assay; type: functional, cell-based
# Chain of Tumour suppressor protein p53/Mdm4 (P04637 whole entry): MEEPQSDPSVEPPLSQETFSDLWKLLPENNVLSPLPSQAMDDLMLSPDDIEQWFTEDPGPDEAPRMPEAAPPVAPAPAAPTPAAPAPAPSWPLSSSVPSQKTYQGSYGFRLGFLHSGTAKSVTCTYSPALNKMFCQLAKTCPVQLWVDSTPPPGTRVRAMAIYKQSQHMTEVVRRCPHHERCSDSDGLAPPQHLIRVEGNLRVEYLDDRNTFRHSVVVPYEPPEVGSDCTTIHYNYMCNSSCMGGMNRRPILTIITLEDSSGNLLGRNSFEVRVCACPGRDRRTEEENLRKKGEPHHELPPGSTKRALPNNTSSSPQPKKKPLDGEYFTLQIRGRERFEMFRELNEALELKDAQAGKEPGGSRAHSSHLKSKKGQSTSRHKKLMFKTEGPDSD
# Chain of Tumour suppressor protein p53/Mdm4 (O15151 whole entry): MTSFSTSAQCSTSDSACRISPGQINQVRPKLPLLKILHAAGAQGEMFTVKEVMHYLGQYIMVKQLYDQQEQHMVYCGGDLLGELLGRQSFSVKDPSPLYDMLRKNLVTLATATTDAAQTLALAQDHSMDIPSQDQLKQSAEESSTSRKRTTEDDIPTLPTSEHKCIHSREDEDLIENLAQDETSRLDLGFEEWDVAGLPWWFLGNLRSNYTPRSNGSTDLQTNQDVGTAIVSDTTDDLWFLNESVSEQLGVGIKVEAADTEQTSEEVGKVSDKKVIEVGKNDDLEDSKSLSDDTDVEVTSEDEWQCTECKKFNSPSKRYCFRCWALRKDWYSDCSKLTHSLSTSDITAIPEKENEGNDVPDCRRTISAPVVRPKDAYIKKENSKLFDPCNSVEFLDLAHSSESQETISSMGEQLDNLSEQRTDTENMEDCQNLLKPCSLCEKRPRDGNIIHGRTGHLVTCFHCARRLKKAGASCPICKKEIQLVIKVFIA
# Chain of Tumour suppressor p53/oncoprotein Mdm2 (Homo sapiens) (P04637 whole entry, looked up): as the sequence (P04637 whole entry) above
# Chain of Tumour suppressor p53/oncoprotein Mdm2 (Homo sapiens) (Q00987 whole entry, looked up): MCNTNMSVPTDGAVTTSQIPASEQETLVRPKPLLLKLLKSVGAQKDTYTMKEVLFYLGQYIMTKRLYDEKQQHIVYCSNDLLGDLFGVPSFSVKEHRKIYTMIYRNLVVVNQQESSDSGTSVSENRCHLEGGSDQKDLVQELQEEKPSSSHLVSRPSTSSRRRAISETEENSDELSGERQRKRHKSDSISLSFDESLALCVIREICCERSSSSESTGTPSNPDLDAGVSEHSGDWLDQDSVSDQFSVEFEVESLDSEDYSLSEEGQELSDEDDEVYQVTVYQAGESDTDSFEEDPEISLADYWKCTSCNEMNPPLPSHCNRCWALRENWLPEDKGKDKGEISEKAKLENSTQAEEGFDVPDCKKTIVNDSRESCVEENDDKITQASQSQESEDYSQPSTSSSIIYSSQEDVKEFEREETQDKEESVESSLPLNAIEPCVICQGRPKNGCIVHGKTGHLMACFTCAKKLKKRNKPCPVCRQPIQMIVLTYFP
# Chain of Tumour suppressor protein p53/Mdm4 (Homo sapiens) (O15151 whole entry, looked up): as the sequence (O15151 whole entry) above
# Chain of Tumour suppressor protein p53/Mdm4 (Homo sapiens) (P04637 whole entry, looked up): as the sequence (P04637 whole entry) above
inhibition [3],pIC50 [5],pIC50 [6],pEC50 [7],inhibition [4],SMILES,other results
,,,,,COc1ccc(C2=N[C@@H](c3ccc(Cl)cc3)[C@@H](c3ccc(Cl)cc3)N2C(=O)N2CCNC(=O)C2)c(OC(C)C)c1,Activity (HCT-116 [1]): Active; Activity (HCT-116 [2]): Active
inactive,8.05,4.34,,,CC(C)[C@@H](CNC(N)=O)NC(=O)NC[C@H](C)NC(=O)NC[C@@H]1CSCCCCCCSC[C@H](NC(=O)[C@H](Cc2ccccc2)NC(=O)[C@H](CO)NC(=O)[C@H](CCCCN)NC(=O)[C@@H](N)CCCCN)C(=O)N[C@@H](CCC(=O)O)C(=O)N[C@@H](Cc2ccc(O)cc2)C(=O)N[C@@H](Cc2c[nH]c3ccccc23)C(=O)N1 (H-KKSFCEYW; linker 5-C via X1),Activity [4]: inactive; Activity (SW480): Active
,,,5.71,,CC(C)[C@@H](CNC(N)=O)NC(=O)NC[C@H](C)NC(=O)NC[C@H](C)NC(=O)[C@H](Cc1c[nH]c2ccccc12)NC(=O)[C@H](Cc1ccc(O)cc1)NC(=O)[C@H](CCC(=O)O)NC(=O)[C@H](C)NC(=O)[C@H](Cc1ccccc1)NC(=O)[C@@H](NC(=O)[C@H](CCCCN)NC(=O)CCC(=O)NCCOCCOCCCCCCCl)[C@@H](C)O ({NH(CH2CH2O)2(CH2)6Cl-Suc}-KTFAEYW-X3),
,7.80,3.58,,,CC(=O)N[C@@H](CC(C)C)C(=O)N[C@H](C(=O)N[C@@H](Cc1ccccc1)C(=O)N[C@H]1CSCCCCCCSC[C@@H](CNC(=O)N[C@@H](C)CNC(=O)N[C@H](CNC(N)=O)C(C)C)NC(=O)[C@H](Cc2c[nH]c3ccccc23)NC(=O)[C@H](Cc2ccc(O)cc2)NC(=O)[C@H](CCC(=O)O)NC1=O)[C@@H](C)O (Ac-LTFCEYW; linker 4-C via X1),Activity (HCT-116 [8]): Dose-dependent-effect; Similar To Nutlin-3A And Able To Increase As Low As 0.5 Um; Activity (HCT-116 [9]): Dose-dependent-effect; Activity (HCT-116 [10]): Dose-dependent-effect; Activity (HCT-116 [11]): Not active; Indicating Absence Of Direct Effect On Cell Membranes
inactive,7.99,4.20,,,CC(C)[C@@H](CNC(N)=O)NC(=O)NC[C@H](C)NC(=O)NC[C@@H]1CSCCCCCCSC[C@H](NC(=O)[C@H](Cc2ccccc2)NC(=O)[C@H](CO)NC(=O)[C@@H](NC(=O)[C@H](CCCCN)NC(=O)[C@@H](N)CCCCN)[C@@H](C)O)C(=O)N[C@@H](CCC(=O)O)C(=O)N[C@@H](Cc2ccc(O)cc2)C(=O)N[C@@H](Cc2c[nH]c3ccccc23)C(=O)N1 (H-KKTSFCEYW; linker 6-C via X1),Activity [4]: inactive; Activity (SW480): Active
99%,8.44,4.99,,98%,CC(C)[C@@H](CNC(N)=O)NC(=O)NC[C@H](C)NC(=O)NC[C@@H]1CSCC(=O)NCCNC(=O)CSC[C@H](NC(=O)[C@H](Cc2ccccc2)NC(=O)[C@H](CO)NC(=O)[C@H](CCCCN)NC(=O)[C@H](CCCNC(=N)N)NC(=O)[C@H](CCCNC(=N)N)NC(=O)[C@@H](N)CCCNC(=N)N)C(=O)N[C@@H](CCC(=O)O)C(=O)N[C@@H](Cc2ccc(O)cc2)C(=O)N[C@@H](Cc2c[nH]c3ccccc23)C(=O)N1 (H-RRRKSFCEYW; linker 7-C via X2),Activity (HCT-116 [12]): Not active; Compound Was Poorly Active Even At High Concentration; Activity (MCF7): inactive
,,,6.29,,CC(C)[C@@H](CNC(N)=O)NC(=O)NC[C@H](C)NC(=O)NC[C@@H]1CSCCCCCCSC[C@H](NC(=O)[C@H](Cc2ccccc2)NC(=O)[C@@H](NC(=O)[C@H](CCCCN)NC(=O)CCC(=O)NCCOCCOCCCCCCCl)[C@@H](C)O)C(=O)N[C@@H](CCC(=O)O)C(=O)N[C@@H](Cc2ccc(O)cc2)C(=O)N[C@@H](Cc2c[nH]c3ccccc23)C(=O)N1 ({NH(CH2CH2O)2(CH2)6Cl-Suc}-KTFCEYW; linker 4-C via X1),
,,,5.48,,CC(C)[C@@H](CNC(N)=O)NC(=O)NC[C@H](C)NC(=O)NC[C@@H]1CSCC(=O)NCCNC(=O)CSC[C@H](NC(=O)[C@H](Cc2ccccc2)NC(=O)[C@H](CO)NC(=O)[C@H](CCCCN)NC(=O)[C@H](CCCNC(=N)N)NC(=O)[C@H](CCCNC(=N)N)NC(=O)[C@H](CCCNC(=N)N)NC(=O)CCC(=O)NCCOCCOCCCCCCCl)C(=O)N[C@@H](CCC(=O)O)C(=O)N[C@@H](Cc2ccc(O)cc2)C(=O)N[C@@H](Cc2c[nH]c3ccccc23)C(=O)N1 ({NH(CH2CH2O)2(CH2)6Cl-Suc}-RRRKSFCEYW; linker 7-C via X2),
,,,5.72,,CC(C)[C@@H](CNC(N)=O)NC(=O)NC[C@H](C)NC(=O)NC[C@@H]1CSCCCCCCSC[C@H](NC(=O)[C@H](Cc2ccccc2)NC(=O)[C@H](CO)NC(=O)[C@H](CCCCN)NC(=O)[C@H](CCCNC(=N)N)NC(=O)[C@H](CCCNC(=N)N)NC(=O)[C@H](CCCNC(=N)N)NC(=O)CCC(=O)NCCOCCOCCCCCCCl)C(=O)N[C@@H](CCC(=O)O)C(=O)N[C@@H](Cc2ccc(O)cc2)C(=O)N[C@@H](Cc2c[nH]c3ccccc23)C(=O)N1 ({NH(CH2CH2O)2(CH2)6Cl-Suc}-RRRKSFCEYW; linker 7-C via X1),
99%,8.00,4.55,,91%,CC(C)[C@@H](CNC(N)=O)NC(=O)NC[C@H](C)NC(=O)NC[C@@H]1CSCC(=O)NCCNC(=O)CSC[C@H](NC(=O)[C@H](Cc2ccccc2)NC(=O)[C@H](CO)NC(=O)[C@@H](N)[C@@H](C)O)C(=O)N[C@@H](CCC(=O)O)C(=O)N[C@@H](Cc2ccc(O)cc2)C(=O)N[C@@H](Cc2c[nH]c3ccccc23)C(=O)N1 (H-TSFCEYW; linker 4-C via X2),Activity (HCT-116 [13]): inactive
97%,7.62,4.09,,61%,CC(C)[C@@H](CNC(N)=O)NC(=O)NC[C@H](C)NC(=O)NC[C@H](C)NC(=O)[C@H](Cc1c[nH]c2ccccc12)NC(=O)[C@H](Cc1ccc(O)cc1)NC(=O)[C@H](CCC(=O)O)NC(=O)[C@H](C)NC(=O)[C@H](Cc1ccccc1)NC(=O)[C@H](CO)NC(=O)[C@@H](N)[C@@H](C)O (H-TSFAEYW-X3),
97%,7.71,3.90,,52%,CC(C)[C@@H](CNC(N)=O)NC(=O)NC[C@H](C)NC(=O)NC[C@@H]1CSCCCCCCSC[C@H](NC(=O)[C@H](Cc2ccccc2)NC(=O)[C@H](CO)NC(=O)[C@@H](N)[C@@H](C)O)C(=O)N[C@@H](CCC(=O)O)C(=O)N[C@@H](Cc2ccc(O)cc2)C(=O)N[C@@H](Cc2c[nH]c3ccccc23)C(=O)N1 (H-TSFCEYW; linker 4-C via X1),Activity (HCT-116 [13]): inactive; Activity (HCT-116 [12]): inactive; Activity (MCF7): inactive
86%,7.48,3.71,,11%,CC(C)[C@@H](CNC(N)=O)NC(=O)NC[C@@H]1CSCCCCCCSC[C@H](NC(=O)[C@H](C)NC(=O)[C@H](Cc2ccccc2)NC(=O)[C@H](CO)NC(=O)[C@@H](N)[C@@H](C)O)C(=O)N[C@@H](Cc2ccc(O)cc2)C(=O)N[C@@H](Cc2c[nH]c3ccccc23)C(=O)N[C@@H](C)CNC(=O)N1 (H-TSFACYW; linker 5-C via X6),
,,,7.06,,N[C@@H](Cc1c[nH]c2ccccc12)C(=O)O [TRYPTOPHAN],
